# Measurements taken from patent US8133886B2, “Heterobicyclic carboxamides as inhibitors for kinases” (Novartis AG, priority 2006, dated 2012).
row,SMILES,melting point
1,"COc1ccc(-n2nc(C(C)(C)C)cc2NC(=O)c2cccc3cc(Oc4cc(NCCN(C)C)ncn4)ccc23)cc1 [Example 19, 6-[6-(2-Dimethylamino-ethylamino)-pyrimidin-4-yloxy]-naphtalene-1-carboxylic acid [5-tert-butyl-2-(4-methoxy-phenyl)-2H-pyrazol-3-yl]-amide]",116 to 117 °C
2,CCOC(=O)c1cc(Oc2ccc3c(C(=O)Nc4ccc(C(C)(C)C)cc4)cccc3c2)ncn1 [Example 18],177 to 178 °C
3,"O=C(Nc1ccc(Cl)c(C(F)(F)F)c1)N1COc2cc(Oc3ccnc(Cl)n3)ccc21 [Example 1, 6-(2-Chloro-pyrimidin-4-yloxy)-benzooxazole-3-carboxylic acid (4-chloro-3-trifluoromethyl-phenyl)-amide]",140 to 142 °C
4,"CS(=O)(=O)Nc1nccc(Oc2ccc3c(C(=O)Nc4ccc(F)c(C(F)(F)F)c4)cccc3c2)n1 [Example 13, 6-(2-Methanesulfonylamino-pyrimidin-4-yloxy)-naphthalene-1-carboxylic acid (4-fluoro-3-trifluoromethyl-Phenyl)-amide]",246 °C

# Results, then the compound that gave them:
row,melting point,SMILES
1,188 °C,"COCc1cc(Oc2ccc3c(C(=O)Nc4ccc(C)c(C(F)(F)F)c4)cccc3c2)ncn1 [Example 18C, 6-(6-Methoxymethyl-pyrimidin-4-yloxy)-naphthalene-1-carboxylic acid (4-methyl-3-trifluoromethyl-phenyl)-amide]"
2,202 to 203 °C,"CC(C)(C)c1ccc(NC(=O)c2cccc3cc(Oc4cc(CO)ncn4)ccc23)cc1 [Example 18A, 6-(6-Hydroxymethyl-pyrimidin-4-yloxy)-naphthalene-1-carboxylic acid (4-tert-butyl-phenyl)-amide]"
